Target: T1, Human HPK1, catalytic domain (Homo sapiens, UniProt Q92918)
T1 construct: purchased Carna
T1 sequence (Q92918 1-346): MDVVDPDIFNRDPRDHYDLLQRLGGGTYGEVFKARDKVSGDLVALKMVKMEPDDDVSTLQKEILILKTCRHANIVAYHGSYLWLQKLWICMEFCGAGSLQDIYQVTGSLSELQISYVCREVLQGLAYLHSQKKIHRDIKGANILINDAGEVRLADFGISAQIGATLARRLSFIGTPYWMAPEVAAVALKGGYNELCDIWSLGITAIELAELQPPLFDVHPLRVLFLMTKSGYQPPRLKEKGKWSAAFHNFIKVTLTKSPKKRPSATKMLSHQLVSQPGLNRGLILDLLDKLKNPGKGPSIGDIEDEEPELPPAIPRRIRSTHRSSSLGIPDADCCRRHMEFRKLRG
Assay: HPK1-SLP76 TR-FRET assay
Type: biochemical
Details: 75 pM HPK1, 10 uM ATP, 10 nM SLP76, 30 min compound pre-incubation

COc1cc2c(cc1Nc1ncc(C(N)=O)c(Nc3cc(C)nn3CCO)n1)CN(C)CC2 [Example 7-90, 4-((1-(2-hydroxyethyl)-3-methyl-1H-pyrazol-5-yl)amino)-2-((6-methoxy-2-methyl-1,2,3,4-tetrahydroisoquinolin-7-yl)amino)pyrimidine-5-carboxamide]
IC50: 1.44 nM

COc1cc2c(cc1Nc1ncc(C(N)=O)c(NC3CCc4cc(F)cc(F)c43)n1)CN(C)CC2 (stereo not drawn) [Example 26-68, 4-[(5,7-difluoro-2,3-dihydro-1H-inden-1-yl)amino]-2-[(6-methoxy-2-methyl-1,2,3,4-tetrahydroisoquinolin-7-yl)amino]pyrimidine-5-carboxamide]
IC50: 2.62 nM

COc1cc2c(cc1Nc1ncc(C(N)=O)c(Nc3ccccc3-c3cncs3)n1)CN(C)CC2 [Example 14-1, 2-[(6-methoxy-2-methyl-1,2,3,4-tetrahydroisoquinolin-7-yl)amino]-4-{[2-(1,3-thiazol-5-yl)phenyl]amino}pyrimidine-5-carboxamide]
IC50: 2.75 nM

COc1cc2c(cc1Nc1ncc(C(N)=O)c(Nc3ccc(C)cc3)n1)CN(C)CC2 [Example 7-24, 2-[(6-methoxy-2-methyl-1,2,3,4-tetrahydroisoquinolin-7-yl)amino]-4-[(4-methylphenyl)amino]pyrimidine-5-carboxamide]
IC50: 0.4 nM

COc1cc2c(cc1Nc1ncc(C(N)=O)c(Nc3c(F)cc(Br)cc3F)n1)CN(C)CC2 [Example 4-30, 4-[(4-bromo-2,6-difluorophenyl)amino]-2-[(6-methoxy-2-methyl-1,2,3,4-tetrahydroisoquinolin-7-yl)amino]pyrimidine-5-carboxamide]
IC50: 0.42 nM

COc1cc2c(cc1Nc1ncc(C(N)=O)c(N[C@H]3c4ccccc4C[C@H]3CO)n1)CN(C)CC2 [Example 26-62, 4-{[(1R,2R)-2-(hydroxymethyl)-2,3-dihydro-1H-inden-1-yl]amino}-2-[(6-methoxy-2-methyl-1,2,3,4-tetrahydroisoquinolin-7-yl)amino]pyrimidine-5-carboxamide]
IC50: 15.6 nM

Cc1cc(C)cc(Nc2ncc(C(N)=O)c(Nc3cccc4c3CCNC4=O)n2)c1 [Example 25-22, 2-[(3,5-dimethylphenyl)amino]-4-[(1-oxo-1,2,3,4-tetrahydroisoquinolin-5-yl)amino]pyrimidine-5-carboxamide]
IC50: 2.98 nM

CCn1nc(C)cc1Nc1nc(Nc2cc3c(cc2OC)CCN(C)C3)ncc1C(N)=O [Example 7-79, 4-((1-ethyl-3-methyl-1H-pyrazol-5-yl)amino)-2-((6-methoxy-2-methyl-1,2,3,4-tetrahydroisoquinolin-7-yl)amino)pyrimidine-5-carboxamide]
IC50: 105 nM

NC(=O)c1cnc(Nc2cccc3sccc23)nc1Nc1cccc2c1CCNC2=O [Example 25-43, 2-[(1-benzothiophen-4-yl)amino]-4-[(1-oxo-1,2,3,4-tetrahydroisoquinolin-5-yl)amino]pyrimidine-5-carboxamide]
IC50: 77.8 nM

COc1cc2c(cc1Nc1ncc(C(N)=O)c(NC3CCC(F)(F)C3)n1)CN(C)CC2 (stereo not drawn) [Example 26-38, 4-[(3,3-difluorocyclopentyl)amino]-2-[(6-methoxy-2-methyl-1,2,3,4-tetrahydroisoquinolin-7-yl)amino]pyrimidine-5-carboxamide]
IC50: 1.07 nM

COC(=O)C1CC2CC(CC(Nc3nc(Nc4cc5c(cc4OC)CCN(C)C5)ncc3C(N)=O)C2)C1 (stereo not drawn) [Example 26-13, methyl 7-({5-carbamoyl-2-[(6-methoxy-2-methyl-1,2,3,4-tetrahydroisoquinolin-7-yl)amino]pyrimidin-4-yl}amino)bicyclo[3.3.1]nonane-3-carboxylate]
IC50: 0.6 nM

COc1cc2c(cc1Nc1ncc(C(N)=O)c(Nc3cccc(CCO)c3)n1)CNCC2 [Example 7-75, 4-{[3-(2-hydroxyethyl)phenyl]amino}-2-[(6-methoxy-1,2,3,4-tetrahydroisoquinolin-7-yl)amino]pyrimidine-5-carboxamide]
IC50: 0.99 nM

COc1cc2c(cc1Nc1ncc(C(N)=O)c(Nc3ccccc3C3CCCCC3)n1)CN(C)CC2 [Example 13-1, 4-[(2-cyclohexylphenyl)amino]-2-[(6-methoxy-2-methyl-1,2,3,4-tetrahydroisoquinolin-7-yl)amino]pyrimidine-5-carboxamide]
IC50: 5.83 nM

COc1cc2c(cc1Nc1ncc(C(N)=O)c(N[C@H](CO)c3ccccc3)n1)CN(C)CC2 [Example 26-43, 4-{[(1S)-2-hydroxy-1-phenylethyl]amino}-2-[(6-methoxy-2-methyl-1,2,3,4-tetrahydroisoquinolin-7-yl)amino]pyrimidine-5-carboxamide]
IC50: 6.59 nM

CC(C1CC1)n1cc(Nc2ncc(C(N)=O)c(Nc3cccc4c3CCNC4=O)n2)cn1 (stereo not drawn) [Example 7-46, 2-{[1-(1-cyclopropylethyl)-1H-pyrazol-4-yl]amino}-4-[(1-oxo-1,2,3,4-tetrahydroisoquinolin-5-yl)amino]pyrimidine-5-carboxamide]
IC50: 0.28 nM

COc1cc2c(cc1Nc1ncc(C(N)=O)c(N[C@H](CO)C3CCCCC3)n1)CN(C)CC2 [Example 26-48, 4-{[(1S)-1-cyclohexyl-2-hydroxyethyl]amino}-2-[(6-methoxy-2-methyl-1,2,3,4-tetrahydroisoquinolin-7-yl)amino]pyrimidine-5-carboxamide]
IC50: 22.8 nM

CCc1ccccc1Nc1ncc(C(N)=O)c(Nc2cccc3c2CCNC3=O)n1 [Example 25-15, 2-[(2-ethylphenyl)amino]-4-[(1-oxo-1,2,3,4-tetrahydroisoquinolin-5-yl)amino]pyrimidine-5-carboxamide]
IC50: 210 nM

COc1cc2c(cc1Nc1ncc(C(N)=O)c(N[C@@H]3CCCC[C@H]3CO)n1)CN(C)CC2 [Example 26-32, 4-{[(1R,2R)-2-(hydroxymethyl)cyclohexyl]amino}-2-[(6-methoxy-2-methyl-1,2,3,4-tetrahydroisoquinolin-7-yl)amino]pyrimidine-5-carboxamide]
IC50: 1.02 nM

COc1cc2c(cc1Nc1ncc(C(N)=O)c(Nc3ccccc3C(F)(F)F)n1)C(C1CC1)N(C)CC2 (single isomer, unassigned) [Example 20-2, 2-((1-cyclopropyl-6-methoxy-2-methyl-1,2,3,4-tetrahydroisoquinolin-7-yl)amino)-4-((2-(trifluoromethyl)phenyl)amino)pyrimidine-5-carboxamide]
IC50: 0.12 nM

NC(=O)c1cnc(Nc2cccc(C3CC3)c2)nc1Nc1cccc2c1CCNC2=O [Example 25-25, 2-[(3-cyclopropylphenyl)amino]-4-[(1-oxo-1,2,3,4-tetrahydroisoquinolin-5-yl)amino]pyrimidine-5-carboxamide]
IC50: 1.23 nM

COc1cc(C2CNC2)ccc1Nc1ncc(C(N)=O)c(Nc2ccccc2Br)n1 [Example 8-4, 2-((4-(azetidin-3-yl)-2-methoxyphenyl)amino)-4-((2-bromophenyl)amino)pyrimidine-5-carboxamide]
IC50: 13.9 nM

COc1cc2c(cc1Nc1ncc(C(N)=O)c(Nc3c(F)cc(F)cc3Cl)n1)CN(C)CC2 [Example 4-21, 4-[(2-chloro-4,6-difluorophenyl)amino]-2-[(6-methoxy-2-methyl-1,2,3,4-tetrahydroisoquinolin-7-yl)amino]pyrimidine-5-carboxamide]
IC50: 0.45 nM

COc1cc2c(cc1Nc1ncc(C(N)=O)c(Nc3cccc(F)c3)n1)CN(C)CC2 [Example 7-18, 4-[(3-fluorophenyl)amino]-2-[(6-methoxy-2-methyl-1,2,3,4-tetrahydroisoquinolin-7-yl)amino]pyrimidine-5-carboxamide]
IC50: 0.29 nM

NC(=O)c1cnc(Nc2cccc3c2OCC3)nc1Nc1ccccc1Br [Example 7-96, 4-[(2-bromophenyl)amino]-2-[(2,3-dihydro-1-benzofuran-7-yl)amino]pyrimidine-5-carboxamide]
IC50: 713 nM

COc1cc2c(cc1Nc1ncc(C(N)=O)c(NC3CCCCC3)n1)CN(C)CC2 [Example 26-2, 4-(cyclohexylamino)-2-[(6-methoxy-2-methyl-1,2,3,4-tetrahydroisoquinolin-7-yl)amino]pyrimidine-5-carboxamide]
IC50: 0.6 nM

NC(=O)c1cnc(Nc2ccccc2OC(F)F)nc1Nc1cccc2c1CCNC2=O [Example 25-27, 2-{[2-(difluoromethoxy)phenyl]amino}-4-[(1-oxo-1,2,3,4-tetrahydroisoquinolin-5-yl)amino]pyrimidine-5-carboxamide]
IC50: 881 nM

COc1cc2c(cc1Nc1ncc(C(N)=O)c(NC3CCC(OC)CC3)n1)CN(C)CC2 (stereo not drawn) [Example 26-31, 4-[(4-methoxycyclohexyl)amino]-2-[(6-methoxy-2-methyl-1,2,3,4-tetrahydroisoquinolin-7-yl)amino]pyrimidine-5-carboxamide]
IC50: 5.18 nM

COc1cc2c3cc1Nc1ncc(C(N)=O)c(n1)Nc1c(F)cc(cc1F)CCCCCN(CC2)C3 [Example 19-1, 52,56-Difluoro-16-methoxy-11,12,13,14-tetrahydro-2,4-diaza-1(7,2)-isoquinolina-3(2,4)-pyrimidina-5(1,4)-benzenacyclodecaphane-35-carboxamide]
IC50: 3.01 nM

NC(=O)c1cnc(Nc2ccc(F)cc2F)nc1Nc1cccc2c1CCNC2=O [Example 25-17, 2-[(2,4-difluorophenyl)amino]-4-[(1-oxo-1,2,3,4-tetrahydroisoquinolin-5-yl)amino]pyrimidine-5-carboxamide]
IC50: 333 nM

COc1cc2c(cc1Nc1ncc(C(N)=O)c(Nc3ccccc3I)n1)CN(C)CC2 [Example 7-70, 4-[(2-iodophenyl)amino]-2-[(6-methoxy-2-methyl-1,2,3,4-tetrahydroisoquinolin-7-yl)amino]pyrimidine-5-carboxamide]
IC50: 0.15 nM
